Columns and labels:
Format in all cases: physicochemical
[1] = Complexation of treprostinil with cholestyramine ion-exchange resins (PUROLITE, DUOLITE); unbound drug assayed by UV at 270 nm
Method: (§1) A UV absorbance measurement was conducted with an approximate 0.1 mg/mL treprostinil diolamine solution with a Fluostar Omega BMG Labtech UV spectrophotometer from 220 nm to 350 nm to determine the λmax. Two standard curves were established with known concentrations of treprostinil at 228 nm and 270 nm. The time to achieve equilibrium between bound and unbound treprostinil to the IER was determined. One gram of resin was added to 100 mL of 10 mg/mL treprostinil solution. The suspension was stirred for four hours and 1 -mL samples were taken at 30, 60, 90, 120, 180, and 240 minutes. Each sample was filtered through a 0.45-μm PTFE filter, and the resulting solution was assayed by UV spectrophotometry for treprostinil concentration. Complexation experiments were conducted with known concentrations of treprostinil and one gram of resin at ratios of 1:0.5, 1:1, 1:2, and 1:4, resin:treprostinil (w/w). Two resins, PUROLITE™ and DUOLITE™, were evaluated separately. The amount of treprostinil complexed per gram of resin was calculated based on the difference between the initial and final treprostinil concentration. The percent loading efficiency was calculated based on the equation: (1-[unbound treprostinil]/[initial treprostinil]) * 100. Photographs were taken for each resin before and after complexation with treprostinil using a Leica DM IL LED light microscope and Leica DMC2900 microscope camera.
FIGS. 1-6 present the results of experiments. […] FIGS. 2A and 2B show calibration curves for determining a concentration of unbound treprostinil (diethanolamine) based on treprostinil absorbance at 228 nm (2A) and 270 nm (2B). The 270 nm curve was used to calculate all the concentrations in the complexation experiments.

[2] = Stability of treprostinil diethanolamine at ambient and refrigerated environments; conditions: 14 days
Method: (§2) Treprostinil diethanolamine was determined to be stable for 14 days at both ambient and refrigerated environments.

[3] = Binding of treprostinil diethanolamine to the 0.45-μm PTFE filters used in the assay
Method: as §1, with “Photographs were taken for each resin before and after complexation with treprostinil using a Leica DM IL LED light microscope and Leica DMC2900 microscope camera.” left out
as §2

Row | Compound | maximum amount of treprostinil bound ([1]; plateau with increasing concentration of treprostinil diethanolamine, resin:treprostinil ratios 1:0.5 to 1:4 (w/w)) | time to equilibrium between bound and unbound treprostinil to the resins ([1]; stirring, 1 g resin in 100 mL of 10 mg/mL treprostinil solution) | stability ([2]; ambient environment) | stability ([2]; refrigerated environment) | loading efficiency (drug bound to the resin) ([1]; lower concentrations of treprostinil diethanolamine) | binding effect with PTFE filters [3]
1 | CCCCC[C@H](O)CC[C@@H]1[C@H]2Cc3cccc(OCC(=O)O)c3C[C@H]2C[C@H]1O [treprostinil] | 1.6 g/g resin | After one hour of stirring | – | – | – | –
2 | CCCCC[C@H](O)CC[C@@H]1[C@H]2Cc3cccc(OCC(=O)O)c3C[C@H]2C[C@H]1O.OCCNCCO [Treprostinil diethanolamine] | – | – | stable | stable | almost all drug was bound to the resin | no binding effect

From US20170095432A1, “TREPROSTINIL FORMULATIONS” (United Therapeutics Corporation, priority 2014, published 2017)
